The target in one experiment is sigma-1 receptor (Homo sapiens, UniProt Q99720). As to the kind of experiment: sigma-1 receptor binding affinity (Ki). Particulars: for Ki: read-out: Ki (nM) Sigma-1.
A further experiment addresses sigma-2 receptor (Homo sapiens, UniProt Q5BJF2). As to the kind of experiment: sigma-2 receptor binding affinity (Ki). The note with it: for Ki: read-out: Ki (nM) Sigma-2.

pKi: −log10 of the molar value. Read-outs that look alike come from different tables or passages of the source. Bounds are passed on as bounds.

Sequence of sigma-1 receptor (Q99720 whole entry, species assumed): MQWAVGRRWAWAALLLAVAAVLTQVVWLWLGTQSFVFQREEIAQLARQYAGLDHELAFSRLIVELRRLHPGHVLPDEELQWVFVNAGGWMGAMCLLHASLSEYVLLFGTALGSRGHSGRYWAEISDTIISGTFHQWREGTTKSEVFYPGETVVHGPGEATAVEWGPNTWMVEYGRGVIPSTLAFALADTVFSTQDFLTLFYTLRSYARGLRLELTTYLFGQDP
Sequence of sigma-2 receptor (Q5BJF2 whole entry, species assumed): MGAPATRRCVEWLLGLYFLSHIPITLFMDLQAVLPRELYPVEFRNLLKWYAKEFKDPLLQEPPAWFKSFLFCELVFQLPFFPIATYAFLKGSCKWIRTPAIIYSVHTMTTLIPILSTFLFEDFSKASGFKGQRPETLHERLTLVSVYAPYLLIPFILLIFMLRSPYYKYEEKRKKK

As a reminder, the Ki is the dissociation constant of the complex between target and ligand, obtained from inhibition or displacement. Consider `CCCn1nc(C(=O)N2CCCCC2)c2c1CCC(N1CCN(C)CC1)C2` (centres unmarked) [compound 196337, (5-(4-methylpiperazin-1-yl)-1-propyl-4,5,6,7-tetrahydro-1H-indazol-3-yl)(piperidin-1-yl)methanone], for which, on sigma-1 receptor, the inhibition constant (Ki) came out at 192 nM. Further, on sigma-2 receptor, the “activity against sigma-2 (in words)” value was “great overall potency”, the “selectivity for sigma-2 over sigma-1” value is given as “about 5 fold” and the inhibition constant Ki was 34 nM.
As to `CCCn1nc(C(=O)N2CCCCC2)c2c1CCC(NCCc1ccncc1)C2` (centres unmarked) [compound 200390, Piperidin-1-yl(1-propyl-5-((2-(pyridin-4-yl)ethyl)amino)-4,5,6,7-tetrahydro-1H-indazol-3-yl)methanone], the “activity against sigma-1 (in words)” value at sigma-1 receptor is “eliminated the activity”. The “activity against sigma-2 (in words)” value on sigma-2 receptor is “eliminated the activity”.
Turning to `CCCn1nc(C(=O)N(C)C)c2c1CCC(NC(=O)c1ccc(F)cc1)C2` (centres unmarked) [compound 2000623, 5-(4-fluorobenzamido)-N,N-dimethyl-1-propyl-4,5,6,7-tetrahydro-1H-indazole-3-carboxamide], on sigma-1 receptor, the “activity against sigma-1 (in words)” value was “did not restore the activity” and the inhibition constant (Ki) is over 10000 nM. In addition, on sigma-2 receptor, the “activity against sigma-2 (in words)” value is “did not restore the activity” and the inhibition constant (Ki) is over 10000 nM.
For `CCCn1nc(C(=O)N2CCCCC2)c2c1CCC(N1CCN(c3ccc([N+](=O)[O-])cc3)CC1)C2` (centres unmarked) [compound 200709, (5-(4-(4-Nitrophenyl)piperazin-1-yl)-1-propyl-4,5,6,7-tetrahydro-1H-indazol-3-yl)(piperidin-1-yl)methanone], the Ki on sigma-1 receptor is 1590 nM; on sigma-2 receptor, 526 nM.
Taken in the same sequence, the figures for `O=C(c1nn(-c2ccccc2)c2c1CC(NCCc1ccncc1)CC2)N1CCCCC1` (centres unmarked) [compound 201666, (1-Phenyl-5-((2-(pyridin-4-yl)ethyl)amino)-4,5,6,7-tetrahydro-1H-indazol-3-yl)(piperidin-1-yl)methanone] were 1030 nM and 517 nM.
A word on the pKi: it is the Ki on a negative log10 scale, so that one unit is a factor of ten. On to `CCCn1nc(C(=O)N(C)C)c2c1CCC(NCc1ccc(F)cc1)C2` (centres unmarked) [compound 54121, 5-((4-Fluorobenzyl)amino)-N,N-dimethyl-1-propyl-4,5,6,7-tetrahydro-1H-indazole-3-carboxamide], for which, on sigma-1 receptor, the “activity against sigma-1 (in words)” value is reported as “moderate activity”, the “selectivity sigma-1 versus sigma-2 (in words)” value is given as “slightly more selectivity for the sigma-1 receptor” and the Ki is 1580 nM. In addition, the pKi on sigma-1 receptor (read-out: Ki sigma-1) is 5.82. In addition, at sigma-2 receptor, the “activity against sigma-2 (in words)” value is on record as “moderate activity” and the Ki stood at 2190 nM. Also, on sigma-2 receptor (read-out: Ki sigma-2), the pKi was 5.68.
Take `NC(=O)c1ccc(-n2nc3c(c2C(=O)N2CCCCC2)CC(NCCc2ccccc2)CC3)cc1` (centres unmarked) [compound 201242, 4-(5-(Phenethylamino)-3-(piperidine-1-carbonyl)-4,5,6,7-tetrahydro-2H-indazol-2-yl)benzamide]: the Ki on sigma-1 receptor was 588 nM; on sigma-2 receptor, over 10000 nM.
Taken in the same sequence, the figures for `O=C(c1c2c(nn1-c1ccccc1)CCC(NCCc1ccncc1)C2)N1CCCCC1` (centres unmarked) [compound 201670, (2-Phenyl-5-((2-(pyridin-4-yl)ethyl)amino)-4,5,6,7-tetrahydro-2H-indazol-3-yl)(piperidin-1-yl)methanone] were 226 nM and 296 nM.
In the case of `CCCn1nc(C(=O)N2CCCCC2)c2c1CCC(NCCc1ccc(O)cc1)C2` (centres unmarked) [compound 200643, (5-((4-Hydroxyphenethyl)amino)-1-propyl-4,5,6,7-tetrahydro-1H-indazol-3-yl)(piperidin-1-yl)methanone], on sigma-1 receptor, the Ki is over 10000 nM. For the same compound, on sigma-2 receptor, the “selectivity of sigma-2 ligands against sigma-1 (in words)” value was “excellent selectivity” and the Ki amounted to 273 nM. In addition, the “more potent against sigma-2” value on sigma-2 receptor (relative to earlier dimethyl amide analogs) is recorded as “about 8 fold”.
As to `CCCn1nc(C(=O)N(C)C)c2c1CCC(OCc1ccc(F)cc1)C2` (centres unmarked) [compound 200622, 5-((4-fluorobenzyl)oxy)-N,N-dimethyl-1-propyl-4,5,6,7-tetrahydro-1H-indazole-3-carboxamide], on sigma-1 receptor, the “activity against sigma-1 (in words)” value was “completely lost” and the Ki is over 10000 nM. In addition, at sigma-2 receptor, the “activity against sigma-2 (in words)” value was “completely lost” and the Ki was over 10000 nM.
Turning to `NC(=O)c1ccc(-n2nc(C(=O)N3CCCCC3)c3c2CCC(NCCc2ccccc2)C3)cc1` (centres unmarked) [compound 201243, 4-(5-(Phenethylamino)-3-(piperidine-1-carbonyl)-4,5,6,7-tetrahydro-1H-indazol-1-yl)benzamide], the results for the inhibition constant (Ki) on sigma-1 receptor and at sigma-2 receptor were 465 nM and 561 nM, respectively.
Taken in the same sequence, the figures for `C=Cc1ccc(-n2nc(C(=O)N3CCCCC3)c3c2CCC(NCCc2ccccc2)C3)cc1` (centres unmarked) [compound 201244, (5-(Phenethylamino)-1-(4-vinylphenyl)-4,5,6,7-tetrahydro-1H-indazol-3-yl)(piperidin-1-yl)methanone] were 458 nM and 305 nM.
The like results for `C=Cc1ccc(-n2nc3c(c2C(=O)N2CCCCC2)CC(NCCc2ccccc2)CC3)cc1` (centres unmarked) [compound 201591, (5-(phenethylamino)-2-(4-vinylphenyl)-4,5,6,7-tetrahydro-2H-indazol-3-yl)(piperidin-1-yl)methanone] were, in that order, 96 nM and 32 nM.
In the case of `CCCn1nc(C(=O)N(C)C)c2c1CCC(NS(=O)(=O)c1ccc(F)cc1)C2` (centres unmarked) [compound 200629, 5-((4-fluorophenyl)sulfonamido)-N,N-dimethyl-1-propyl-4,5,6,7-tetrahydro-1H-indazole-3-carboxamide], on sigma-1 receptor, the “activity against sigma-1 (in words)” value is listed as “did not restore the activity” and the Ki was over 10000 nM. Further, on sigma-2 receptor, the “activity against sigma-2 (in words)” value is “did not restore the activity” and the inhibitory constant (Ki) was over 10000 nM.
For `CCCn1nc(C(=O)N2CCCCC2)c2c1CCC(NCCc1cccc(O)c1)C2` (centres unmarked) [compound 200646, (5-((3-Hydroxyphenethyl)amino)-1-propyl-4,5,6,7-tetrahydro-1H-indazol-3-yl)(piperidin-1-yl)methanone], the inhibition constant Ki on sigma-1 receptor stood at 872 nM; at sigma-2 receptor, 612 nM.
Taken in the same sequence, the figures for `O=C(c1nn(-c2ccccc2)c2c1CC(NCCc1cccc(O)c1)CC2)N1CCCCC1` (centres unmarked) [compound 201681, (5-((3-Hydroxyphenethyl)amino)-1-phenyl-4,5,6,7-tetrahydro-1H-indazol-3-yl)(piperidin-1-yl)methanone] were 204 nM and over 10000 nM.
